Peptide text beside a SMILES is read from it. * marks the point of attachment. Cbz = O=C(OCc1ccccc1)*
Assays:
[1] = tested on: HeLa cells expressing the probe reagent mKO2-Nrf2—100-T2A-Keap1; experiment: Evaluation of a probe reagent by imaging of a cell (mKO2 fluorescence, time-lapse microscope); type: cell-based, human
Protocol: The prepared cDNA was transfected into HeLa cells that were cultured on a glass bottom dish by using FuGENE HD (manufactured by Roche Applied Science). The medium was replaced by the fresh medium 12 hours after the transfection. […] This microscope was equipped with a cooled CCD camera so that fluorescent images of a cell were able to be captured over time.
In order to verify that the constructed probe reagent responded correctly to oxidative stress as intended, diethylmaleate (DEM), which is an oxidative stress inducer, was added at a concentration of 100 μM, and the fluorescent intensity of mKO2 (ex; BP520-540HQ, em; BP555-600HQ) was measured. […] When ethanol, a solvent, was added at 0.1% as a control, the fluorescent intensity of mKO2 was not increased.
In order to verify that this probe reagent was degraded by a proteasome in a cell under conditions without being exposed to oxidative stress, an experiment using a proteasome inhibitor, MG132, was carried out. […] In contrast, after dimethylsulfoxide (DMSO), a solvent, was added at 0.1% as a control, the fluorescent intensity of mKO2 was not increased (FIG. 5).

[2] = tested on: mKO2-Nrf2 fusion molecule in HeLa cells; experiment: Evaluation of a probe reagent by Western blotting using an anti-Nrf2 antibody; type: cell-based, human; conditions: MG132 10 μM versus 0.1% DMSO; FIG. 6
Protocol: First, to confirm that this probe reagent was separated into an mKO2-Nrf2 fusion molecule and Keap1 by the T2A peptide in a cell, the following experiments were performed. The cDNA, which was prepared using FuGENE® HD (Roche Applied Science Inc.), was transfected into HeLa cells cultured on a 35-mm dish. The medium was replaced by the fresh medium 12 hours after the transfection. After the 12 hours, DEM was added at a concentration of 100 μM, and ethanol was added at 0.1% as a control. The cells were cultured for further 8 hours. After that, Western blotting was conducted by using an anti-Nrf2 antibody (Santa Cruz Inc.). Both in the case of adding DEM and the case of adding ethanol, the band of the mKO2-Nrf2 fusion molecule was detected, but the band of the probe reagent comprising linked Keap1 was hardly observed.
Next, the fact that this probe reagent was degraded by a proteasome in a cell was confirmed by performing Western blotting. A proteasome inhibitor, MG132, was added at a concentration of 10 μM to HeLa cells that had been cultured in a similar manner. DMSO was added at 0.1% to control cells as well.

Molecule: CCOC(=O)/C=C\C(=O)OCC [DEM, diethylmaleate]
- increase in the fluorescent intensity of mKO2 ([1]; DEM added at 100 μM, HeLa cells transfected with probe cDNA, control 0.1% ethanol gave no increase, FIG. 3): more than 10 times

Molecule: CC(C)C[C@@H](C=O)NC(=O)[C@H](CC(C)C)NC(=O)[C@H](CC(C)C)NC(=O)OCc1ccccc1 [MG132] (Cbz-Leu-Leu-Leu-aldehyde)
- band of the mKO2-Nrf2 fusion molecule (amount of probe reagent) [2]: strong band was detected compared to the case of adding DMSO
- fluorescent intensity of mKO2 ([1]; MG132 added at 10 μM, control 0.1% DMSO gave no increase, FIG. 5): increase in the fluorescent intensity of mKO2 was observed

Molecule: probe reagent: fusion protein: fluorescent protein mKO2, Nrf2 amino acids 1 to 100, self-cleaved peptide T2A and Keap1; encoded by SEQ ID NO: 7
- fluorescence of cells expressing the probe reagent before the experiment ([1]; no oxidative stress loaded, 24 hours after medium change): only fluorescence at the background light level was detected

Reference: patent US8865124B2, “Probe reagent for measuring oxidative stress” (Japan Science and Technology Agency, priority 2008, dated 2014)
